In US20240109914A1, “IMIDAZOTHIAZOLE COMPOUNDS AND ANALOGS THEREOF AND METHODS FOR TREATING NEMATODE INFECTIONS IN PLANTS” (The Governing Council of The University of Toronto, priority 2021, published 2024):
Read-outs that look alike come from different tables or passages of the source.

Legend:
M. incognita J2 larvae = test: Meloidogyne incognita in vitro larval mobility assay; type: in vivo; details: for Replicate 1 z-score / Replicate 2 z-score: z-score vs untreated DMSO wells; for pest or weed control at 45 µM: Meloidogyne incognita, 96 h
Experimental: M. incognita (Kofoid & White) Chitwood Race 1 (originally isolated in Maryland) was used for all experiments, and was maintained on pepper (Capsicum annuum L.) cv. PA-136 in a greenhouse as previously described^44. Infective J2 juveniles were collected as described in ref. 45. The microwell dose-response experiments were carried out similarly to previously described protocols^44,46. In brief, 50 μL of deionized water was added to the wells of 96-well polystyrene plates and 0.5 μL of test compound (or DMSO alone) was added to each well. Approximately 35 J2s were then added to each well in 49.5 μL of deionized water. The chemicals were tested at 45 μM, and the final concentration of DMSO in each well was 0.5% (v/v). DMSO alone was added to 3 separate wells. The plates were covered with plastic adhesive strips, and the lids of the plates were sealed with parafilm. The plates were incubated at 25° C. without shaking for 4 days. The percent of worms that were immobile (% immobile) was quantified by counting the number of immobile worms after 4 days of incubation, dividing the number of immobile worms by the total number of worms in the well, and then multiplying by 100. Two replicates were performed for each treatment. The z-score for each treatment was calculated using the mean and standard deviation of the untreated DMSO control wells. The average % immobile value was calculated across the two replicates. A test compound was considered most promising if the z-score was greater than 1.645 in both replicates.

C. elegans = C. elegans dose-response (viability, minimum lethal concentration); type: in vivo, Caenorhabditis elegans; details: Caenorhabditis elegans, 72 h, L1 worms, 3 days at 20° C.
Experimental: Forty microliters of an HB101 E. coli bacterial suspension in liquid NGM (nematode growth media—see ref. 42 for the recipe) was added to each well of a 96-well flat-bottom culture plate, after which approximately 25 synchronized L1 worms, in 10 μl of M9 buffer (see ref. 43 for the recipe), were added to each well. The synchronized L1 worms were obtained from an embryo preparation performed the previous day (see ref. 43 for the protocol). For the L1 assays, 0.5 μl of test compound solution (or DMSO alone) was immediately added to the wells using a multichannel pipette; the final DMSO concentration is 1% (v/v). The worms were incubated for 3 days at 20° C. and the number of viable animals was counted.
At least three biological replicates were performed for each dose-response assay. For each biological replicate, two technical replicates were performed and the numbers of viable animals for each technical replicate were combined (i.e. ˜ 50 worms assayed per concentration). The number of viable worms at each concentration was divided by the corresponding DMSO control value to give the “relative viability” for each concentration. The “relative viability” values were then averaged across the biological replicates. Minimum lethal concentration was defined as the lowest concentration at which at least 20% of worms die.

M. hapla eggs = test: Meloidogyne hapla in vitro egg hatch assay; type: in vivo; details: 45 μM; for Number of Hatched Eggs: 8 days at room temperature, about 90 eggs per well, tested once; for Number of Hatched Eggs z-score: 8 days, z-score vs 8 untreated DMSO wells
Experimental: The M. hapla were originally obtained from a soil sample of muck soil from Ste-Clotilde, Quebec, Canada. Using tweezers, egg masses were carefully removed from root material from infested carrot roots. Eggs were liberated from the egg masses using a mild sodium hypochlorite bleaching protocol, whereby egg masses were bleached with a 10% commercial bleach (sodium hypochlorite) solution for 4 minutes with vigorous shaking, and then washed 5 times with deionized water. 50 μL of deionized water was added to each well of two 96-well polystyrene culture plates, and 0.5 μL of chemical (or DMSO alone) was added to each well. Approximately 90 eggs were added to each well in 49.5 ul of deionized water. The plates were sealed with parafilm and incubated for 8 days at room temperature without shaking in a Tupperware box filled with wet paper towels. After the 8-day incubation, the number of hatched eggs was counted for each treatment and for the untreated controls. Each chemical treatment was tested only once. 8 separate untreated DMSO controls were included in the experiment. The z-score for each treatment was calculated using the mean and standard deviation of the untreated DMSO control wells.

[1] = 45 μM, 4 days, average of the two replicates, read-out: Average % Immobile
[2] = 45 μM, 4 days, replicate 1, read-out: Replicate 1 % Immobile
[3] = 45 μM, 4 days, replicate 2, read-out: Replicate 2 % Immobile
[4] = lowest concentration at which at least 20% of worms die, read-out: Minimum Lethal Concentration
[5] = same values in ppm, read-out: Minimum Lethal Concentration (ppm)

Structure (SMILES) | Replicate 1 z-score (M. incognita J2 larvae; 45 μM, 4 days, replicate 1) | Replicate 2 z-score (M. incognita J2 larvae; 45 μM, 4 days, replicate 2) | pest or weed control at 45 µM (M. incognita J2 larvae; [1]) [%] | pest or weed control at 45 µM (M. incognita J2 larvae; [2]) [%] | pest or weed control at 45 µM (M. incognita J2 larvae; [3]) [%] | minimal effective concentration (C. elegans; [4]) [µM] | minimal effective concentration (C. elegans; [5]) [µg/mL] | Number of Hatched Eggs (M. hapla eggs) | Number of Hatched Eggs z-score (M. hapla eggs) | also measured
Cc1ccc(-c2cn3ccsc3n2)cc1 [I-2] | [14.54] | [6.03] | 68.5 | 93.8 | 43.1 | 50 | 14.8 | – | – | –
Cc1ccc(-c2nc3sccn3c2C)cc1 [I-3] | [6.94] | [2.76] | 40.8 | 56.7 | 25 | > 100 | > 22.8 | – | – | –
Cc1ccc(-c2cn3c(C)csc3n2)cc1 [I-4] | – | – | – | – | – | 100 | 22.8 | 4 | [3.31] | –
Cc1ccc(-c2cn3cc(C)sc3n2)cc1 [I-5] | – | – | – | – | – | 25 | 5.7 | – | – | –
Cc1ccc(-c2cn3ccsc3n2)cc1C [I-6] | [4.25] | [3.22] | 35.5 | 43.5 | 27.6 | > 100 | > 22.8 | – | – | –
CCc1ccc(-c2nc3sccn3c2C)cc1 [I-8] | – | – | – | – | – | 50 | 12.1 | – | – | –
CCc1ccc(-c2cn3c(C)csc3n2)cc1 [I-9] | – | – | – | – | – | 100 | 24.2 | 2 | [3.97] | –
CCc1cccc(-c2cn3ccsc3n2)c1 [I-11] | – | – | – | – | – | 100 | 22.8 | 3 | [3.64] | –
CC(C)(C)c1ccc(-c2cn3ccsc3n2)cc1 [I-12] | – | – | – | – | – | 100 | 25.6 | – | – | –
Cc1csc2nc(-c3ccccc3F)cn12 [I-20] | – | – | – | – | – | > 100 | > 23.2 | – | – | –
Cc1csc2nc(-c3cccc(Br)c3)cn12 [I-36] | – | – | – | – | – | > 100 | > 29.3 | – | – | –
Cc1c(-c2ccccc2Br)nc2sccn12 [I-39] | – | – | – | – | – | > 100 | > 29.3 | – | – | –
Cc1csc2nc(-c3ccccc3Br)cn12 [I-40] | – | – | – | – | – | > 100 | > 29.3 | – | – | –
Ic1cccc(-c2cn3ccsc3n2)c1 [I-42] | [5.89] | [11.03] | 61.1 | 51.5 | 70.7 | 25 | 8.2 | – | – | –
Ic1ccccc1-c1cn2ccsc2n1 [I-43] | – | – | – | – | – | 50 | 16.3 | 4 | [3.31] | –
Nc1ccc(-c2cn3ccsc3n2)cc1 [I-44] | – | – | – | – | – | > 100 | > 21.5 | – | – | –
CCOc1ccc(-c2nc3sccn3c2C=O)cc1 [I-154] | [10.40] | [16.33] | ≥ 75 | 73.6 | 100 | – | – | 0 | [4.63] | Number of Hatched Eggs (M. hapla eggs; listed as 1-154): completely inhibited egg hatching
CC(C)NC(=O)N1CC(=O)N(c2cc(Cl)cc(Cl)c2)C1=O [Iprodione, iprodione, reference compound] | [−0.02] | [1.71] | 13.8 | 10.9 | 16.7 | – | – | 15 | [−0.33] | –
CNC(=O)O/N=C(\SC)C(=O)N(C)C [Oxamyl, oxamyl, reference compound] | [9.35] | [13.88] | – | – | – | – | – | 9 | [1.65] | pest or weed control at 45 µM (M. incognita J2 larvae; read-out: Average % Immobile): 66.9%; pest or weed control at 45 µM (M. incognita J2 larvae; read-out: Replicate 1 % Immobile): 67.2%; pest or weed control at 45 µM (M. incognita J2 larvae; read-out: Replicate 2 % Immobile): 66.7%
